± gives the expanded uncertainty stated by the source.
Conditions: 101.33 kPa, Liquid, Vibrating tube method

NCCO [2-aminoethan-1-ol]
Conditions | mass density [kg/m3]
281.15 K | 1025.55 ± 0.52
283.15 K | 1023.99 ± 0.52
285.15 K | 1022.42 ± 0.52
287.15 K | 1020.84 ± 0.52
289.15 K | 1019.26 ± 0.52
291.15 K | 1017.68 ± 0.52
293.15 K | 1016.1 ± 0.52
295.15 K | 1014.52 ± 0.51
297.15 K | 1012.94 ± 0.51
299.15 K | 1011.35 ± 0.51
301.15 K | 1009.76 ± 0.51
303.15 K | 1008.17 ± 0.51
305.15 K | 1006.58 ± 0.51
307.15 K | 1004.99 ± 0.51
309.15 K | 1003.4 ± 0.51
311.15 K | 1001.8 ± 0.51
313.15 K | 1000.21 ± 0.51
315.15 K | 998.6 ± 0.51
317.15 K | 997 ± 0.51
319.15 K | 995.4 ± 0.5
321.15 K | 993.79 ± 0.5
323.15 K | 992.19 ± 0.5
325.15 K | 990.58 ± 0.5
327.15 K | 988.96 ± 0.5
329.15 K | 987.34 ± 0.5
331.15 K | 985.72 ± 0.5
333.15 K | 984.1 ± 0.5
335.15 K | 982.48 ± 0.5
337.15 K | 980.85 ± 0.5
339.15 K | 979.21 ± 0.5
341.15 K | 977.58 ± 0.5
343.15 K | 975.94 ± 0.5
345.15 K | 974.3 ± 0.5
347.15 K | 972.65 ± 0.49
349.15 K | 970.99 ± 0.49
351.15 K | 969.34 ± 0.49
353.15 K | 967.68 ± 0.49

CO [methanol]
Conditions | mass density [kg/m3]
283.15 K | 800.67 ± 0.15
288.15 K | 795.99 ± 0.15
293.15 K | 791.29 ± 0.15
298.15 K | 786.58 ± 0.15
303.15 K | 781.86 ± 0.16
308.15 K | 777.1 ± 0.16
313.15 K | 772.32 ± 0.16
318.15 K | 767.52 ± 0.16
323.15 K | 762.67 ± 0.17
328.15 K | 757.77 ± 0.17
333.15 K | 752.83 ± 0.17

Reference: the NIST ThermoML archive (doi:10.1016/j.tca.2004.11.015)
